Measurements taken from patent publication US7595345B2, “Vitamin D receptor modulators” (Eli Lilly and Company, priority 2003, dated 2009).

Columns and labels:
[1] = Mouse hypercalcemia assay; assay type: in vivo; details: female DBF mice, oral gavage for 6 days, serum ionized calcium 6 hours after last dosing
Source text: 4. The Mouse Hypercalcemia Assay
(4) Materials and Method for the Mouse Hypercalcemia Assay: […]

[2] = system: IL-10 production in PBMCs; assay: Human IL-10 induction assay; assay type: cell-based; details: PBMC; TPA/PHA treated human PBMCs, IL-10 in supernatant by immunoassay
Source text: 6. The IL-10 Induction Assay
This is an in vitro efficacy assay for psoriasis, abscess and adhesion. Psoriasis involves both keratinocytes and immune cells. IL-10 is a unique cytokine because it is anti-inflammatory and immunosuppressive. This assay tells us whether a VDRM is able to function as an agonist in PBMCs (primary blood mononuclear cells) or not. A lower EC50 value is desirable in this assay since a compound with a lower EC50 value will be a better agonist in PBMCs. […] 7. Other Compound Assay Standards An alternative measure of the efficacy of compounds of the invention for treatment of osteoporosis is a numerical ratio calculated as follows: • Dose Threshold needed to induce hypercalcemia • divided by • Dose Threshold needed for bone efficacy An alternative measure of the efficacy of compounds of the invention for treatment of psoriasis is a numerical ratio calculated as follows: • Dose Threshold needed to induce hypercalcemia • divided by • Dose Threshold needed to induce keratinocyte proliferation For the above ratios, Dose Thresholds are determined from dose response curve data. 8. The CaT1 (Calcium Transport Protein 1) Assay The CaT1 Assay is an indicator for the undesirable condition of hypercalcemia. The higher the EC50 values for a compound the less calcemic it will be in vivo. […] Preferred assay results are greater than 1000 nM. Details of the Assay Methods: (1) Materials and Method for RXR-VDR Heterodimerization Assay: Transfection Method:
(6) Materials and Method for Human IL-10 Induction Assay:
Isolation of peripheral blood mononuclear cells (PBMCs): • A. Collect 50 ml of human blood and dilute with media, RPMI-1640. • B. Prepare sterile tubes with ficol. • C. Add diluted blood to tubes. • D. Centrifuge. • E. Discard the top layer and collect the cells from middle layer. • F. Divide all cells into four tubes and add media. • G. Centrifuge. • H. Aspirate off media and resuspend. • I. Collect all cells • J. Centrifuge. at 1200 rpm for 10 minutes. • K. Resuspend in RPMI-1640 with 2% FBS and count cells
Stimulation of PBMC: • L. Prepare TPA in DMSO. • M. Dissolve PHA in water. • N. Plate TPA/PHA treated PBMCs in well plates. • O. Incubate.
Treatment: • P. Prepare all compound dilutions in plain RPMI-1640 media. • Q. Add diluted compound. • R. Incubate.
Sample Collection and Assay: • S. Remove all the cells by centrifugation and assay the supernatant for IL-10 by immunoassay. • 1) T. Perform IL-10 assay using anti-human IL-10 antibody coated beads, as described by the manufacturer (Linco Research Inc., St. Charles, Mo.).

KERtr cells = assay: Keratinocyte proliferation assay; assay type: cell-based; details: Homo sapiens, 72 hr, BrdU incorporation, read-out: Kera. Prolif. IC50
Experimental: 5. The Keratinocyte Proliferation Assay
This Assay is indicative for the treatment of psoriasis.
(5) The Keratinocyte Proliferation Assay:
KERtr cells (Human skin keratinocyte transformed with a retrovirus vector, obtained from ATCC) were plated in 96-well flat-bottomed plates (3000 cells/well) in 100 µl keratinocyte serum free medium supplemented with bovine pituitary extract in the absence of EGF (Life Technologies, Rockville, Md.) and incubated at 37° C. for two days. The cells were treated with various concentrations of VDR ligands (ten-fold serial dilution from 10,000 nM to 0.1 nM in triplicate), dissolved in 100 µl keratinocyte serum free medium supplemented with bovine pituitary extract in the absence of EGF and incubated at 37° C. for 72 hr. BrdU (5-bromo-2′-deoxyuridine) incorporation was analyzed as a measure of DNA replication (Cell proliferation ELISA kit, Roche Diagnostics, Indianapolis, Ind.) and absorbance was measured at 405 nm. Potency values (IC50) values were determined as the concentration (nM) of compound that elicited a half-maximal response.

rat osteocalcin promoter = assay: OCN (osteocalcin) promoter assay; assay type: cell-based; details: RG-15 (ROS 17/2.8) cells, 48 hr treatment, luciferase
Experimental: 3. The OCN (Osteocalcin) Promoter Assay
The OCN Promoter Assay is an indicator and marker for osteoporosis. Desired assay results are EC50 less than or equal to […]. Preferred assay results are less than […].
(3) Materials and Method for the OCN Promoter Assay:
The activation of osteocalcin by VDR ligands was evaluated in a rat osteoblast-like cell line RG-15 (ROS 17/2.8) stably expressing rat osteocalcin promoter fused with luciferase reporter gene. The stable cell lines were established as reported before (Activation of Osteocalcin Transcription involves interaction of protein kinase A- and Protein kinase C-dependent pathways. Boguslawski, G., Hale, L. V., Yu, X.-P., Miles, R. R., Onyia, J. E., Santerre R. F., Chandrasekhar, S. J. Biol. Chem. 275, 999-1006, 2000). Confluent RG-15 cells maintained in DMEM/F-12 medium (3:1) containing 5% FBS, 300 µg/ml G418 and at 37° C. under 5% CO2/95% air atmosphere were trypsinized (0.25% trypsin) and plated into white opaque 96-well cell culture plates (25000 cells/well). After 24 hr, cells (in DMEM/F-12 medium+2% FBS) were treated with various concentrations of compounds, dissolved in DMSO. The final DMSO concentration remained at 0.01% (v/v). After 48 hr treatment, the medium was removed, cells were lysed with 50 µl of lysis buffer (From Luciferase reporter assay system, Roche Diagnostics, Indianapolis, Ind.) and assayed for luciferase activity using the Luciferase Reporter Gene Assay kit from Boehringer Mannheim as per manufacturer's specifications.

VDR (pGal4-VDR-LBD) = molecular target: T1, VDR (pGal4-VDR-LBD) (Homo sapiens, UniProt P11473); assay: VDR CTF (Caco-2 cell co-transfection assay); assay type: cell-based; details: Caco-2 cells, Gal4-responsive reporter pFRLuc; surrogate for calcemic activity
T1 construct: the receptor expression vector pGal4-VDR-LBD (10 ng); expressed in transfected cells; host or cells: Caco-2 cells
T1 sequence (P11473 127-423 limits assumed): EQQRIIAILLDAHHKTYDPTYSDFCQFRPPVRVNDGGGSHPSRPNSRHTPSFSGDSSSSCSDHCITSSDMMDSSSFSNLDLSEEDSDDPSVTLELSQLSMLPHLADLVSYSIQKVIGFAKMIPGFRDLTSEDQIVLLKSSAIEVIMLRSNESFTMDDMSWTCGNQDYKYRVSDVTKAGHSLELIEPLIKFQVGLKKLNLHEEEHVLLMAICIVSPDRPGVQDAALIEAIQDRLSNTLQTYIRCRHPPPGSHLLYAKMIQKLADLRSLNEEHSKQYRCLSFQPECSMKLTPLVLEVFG
Experimental: 2. The Caco-2 Cell Co-Transfection Assay:
The Caco-2 cell assay is an indicator for the undesirable condition of hypercalcemia. This co-transfection assay is a surrogate assay for in vivo calcemic activity of VDR ligands. […] Preferred assay results are greater than 1000 nM.
(2) Materials and Method for the Caco-2 Cell Assay:
Caco-2 cells, grown in phenol red free, DMEM (Invitrogen, Carlsbad, Calif.) containing 10% charcoal-stripped FCS (Hyclone, Logan, Utah), were transfected with Fugene 6 reagent (Roche Diagnostics, Indianapolis, Ind.). Cells (5000/well) were plated 18 h before transfection in a 96 well plate. The Cells were transfected with Gal4-responsive reporter pFRLuc (150 ng, Stratagene, La Jolla Calif.) and the receptor expression vector pGal4-VDR-LBD (10 ng), along with Fugene 6 reagent (0.2 μl/well). The DNA-Fugene complex was formed by incubating the mixture for 30 min at room temperature. The cells were transfected in triplicate for 5 h, and treated with various concentrations of VDR ligands (form 0.01 nM to 10,000 nM concentration range) 18 h post-transfection. The luciferase activity was quantified using Steady-Glo reagent kit (Promega, Madison, Wis.) as per manufacturer's specifications.

Row | Structure (SMILES) | Mouse Hypercal [1] | EC50 (rat osteocalcin promoter; Rattus norvegicus, 48 h) | EC50 (VDR (pGal4-VDR-LBD)) | EC50 (rat osteocalcin promoter) | IC50 [2] | IC50 (KERtr cells)
1 | C=C1/C(=C\C=C2/CCC[C@]3(C)[C@@H]([C@H](C)CCCC(C)(C)O)CC[C@@H]23)C[C@@H](O)C[C@@H]1O [AA, 1α,25-dihydroxyvitamin D3, reference compound] | 0.06 µg/kg/day |  |  |  |  | 
2 | CCC(CC)(c1ccc(OCC(O)CO)c(C)c1)c1ccc(OCC(O)C(C)(C)C)c(C)c1 (stereo not drawn) [BB, 3-(4-{1-Ethyl-1-[4-(2-hydroxy-3,3-dimethyl-butoxy)-3-methyl-phenyl]-propyl}-2-methyl-phenoxy)-propane-1,2-diol, reference compound] | 20 µg/kg/day | 8.24 nM |  |  | 28 nM | 10 nM
3 | CCC(CC)(c1ccc(OCC(=O)C(C)(C)C)c(C)c1)c1ccc(OCC(=O)C(C)(C)C)c(C)c1 [DD, reference compound] | 1000 µg/kg/day | 31.1 nM |  |  |  | 1060 nM
4 | C=C1/C(=C\C=C2/CCC[C@]3(C)[C@@H]([C@H](C)/C=C/[C@@H](O)C4CC4)CC[C@@H]23)C[C@@H](O)C[C@@H]1O [FF, calcipotriol, reference compound] |  |  |  |  | 0.5 nM | 103 nM

Second part, led by results:

Row | Mouse Hypercal [1] | EC50 (rat osteocalcin promoter; Rattus norvegicus, 48 h) | EC50 (VDR (pGal4-VDR-LBD)) | EC50 (rat osteocalcin promoter) | Structure (SMILES) | IC50 [2] | IC50 (KERtr cells)
5 | 1000 µg/kg/day | 341 nM |  |  | CCC(CC)(c1ccc(OCC(=O)C(C)(C)C)c(C)c1)c1ccc(OC[C@H](O)C(C)(C)C)c(C)c1 [EE, reference compound] |  | 
6 | 300 µg/kg/day | 1.2 nM | 397 nM | 1.7 nM | CCC(O)(C#Cc1ccc(C(CC)(CC)c2ccc(C(=O)NC(C)(C)C(=O)O)c(C)c2)cc1C)CC [Ex. 2, 2-(4-{1-Ethyl-1-[4-(3-ethyl-3-hydroxy-pent-1-ynyl)-3-methyl-phenyl]-propyl}-2-methyl-benzoylamino)-2-methyl-propionic acid] | 24 nM | 21 nM
